System: interleukin-2 (IL-2) production
Test: IL-2 inhibition assay in pha-stimulated human lymphocytes
Format: cell-based
Conditions: preliminary trial; cultured human lymphocytes stimulated with pha, with or without CsA
Experimental: The potential for the extracts to reduce/prevent hair loss or promote hair growth were assessed by an IL-2 inhibition assay. IL-2 has been associated with inhibition of hair growth and promotion of hair loss.
Human lymphocytes were extracted from blood and cultured using standard techniques. A preliminary trial was carried out to ensure that test cells were able to produce IL-2 when stimulated with phytohaemogluttinin (pha), a known IL-2 promoter, and also for this stimulation to be inhibited using Cyclosporin A (CsA) which is a known inhibitor of IL-2 production.
Following this confirmation of the capability of the cells to produce IL-2, studies using the extracts were carried out using the same methodology, but with the extracts replacing CsA. Results are shown in Table 2 and expressed as % IL-2 inhibition compared to control.
Control=50% denatured ethanol, 50% propylene glycol.
All materials were used at 1 in 1000 dilution.

**Q.** For phytohaemogluttinin [pha], which “IL-2” value is on record?
**A.** Its value is >1000 pg/mL.

Source: patent publication US7754249B2, “Haircare compositions and methods” (The Boots Company PLC, priority 2004, dated 2010)
